Test results: PMC10287695, “Non-covalent inhibitors of thioredoxin glutathione reductase with schistosomicidal activity in vivo” (Nature Communications, 2023)
“And” between values parts separate entries of the source, which are not always exact repeats. Equal entries are not always repeated.

Key:
TGR [1] = target: T1, TGR (Schistosoma mansoni, UniProt Q962Y6, X597U); assay: NADPH consumption (oxidase activity); assay type: biochemical, S. mansoni; details: replicates
T1 construct: made in house
Summary of the method: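 Enzyme (500 nM) preincubated 30 min with compound (TRi-1, Stattic 50 µM; AF 20 µM) and 100 µM NADPH, desalted, then mixed with 100 µM NADPH; NADPH consumption read at 340 nm. Other compounds (50 µM) run without desalting, preincubation 30 min or 2 h.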

TGR [2] = target: T2, TGR (Schistosoma mansoni, UniProt Q962Y6); assay: NADPH dependence of inhibition; assay type: biochemical; parameters: unit not given here; details: panel b, replicates; for Rate, no NADPH: preincubation no NADPH; for Rate, with NADPH: preincubation with NADPH
T2 construct: made in house
T2 sequence (Q962Y6 1-598): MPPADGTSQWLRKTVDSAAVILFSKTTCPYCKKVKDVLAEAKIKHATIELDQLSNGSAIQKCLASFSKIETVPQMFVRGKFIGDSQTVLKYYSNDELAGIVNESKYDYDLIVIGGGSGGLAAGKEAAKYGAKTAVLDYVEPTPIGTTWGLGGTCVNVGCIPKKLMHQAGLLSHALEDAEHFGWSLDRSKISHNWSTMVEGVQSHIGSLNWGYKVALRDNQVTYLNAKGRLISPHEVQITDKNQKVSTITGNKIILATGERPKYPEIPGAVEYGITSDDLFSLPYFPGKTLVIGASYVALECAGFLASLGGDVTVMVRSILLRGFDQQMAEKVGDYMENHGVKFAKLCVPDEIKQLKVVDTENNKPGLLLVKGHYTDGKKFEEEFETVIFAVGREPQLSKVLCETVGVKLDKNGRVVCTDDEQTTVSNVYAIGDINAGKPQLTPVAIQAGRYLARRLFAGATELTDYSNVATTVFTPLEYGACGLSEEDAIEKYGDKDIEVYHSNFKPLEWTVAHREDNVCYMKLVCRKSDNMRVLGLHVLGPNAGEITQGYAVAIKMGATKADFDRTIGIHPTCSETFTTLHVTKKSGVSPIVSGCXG
Experimental: TGR was incubated at room temperature with inhibitor in the presence or absence of 100 µM NADPH for 15 min. DTNB (3 mM) and NADPH (100 µM) were added, and the reaction was monitored at A412 for 5 min to determine reaction rate. The assay was done in triplicate.

[3] = test system: S. mansoni juvenile worms in mice; assay: Schistosomicidal efficacy in infected mice, juvenile worms (21 d.p.i.); assay type: in vivo
Experimental: (§1) To assess the efficacy of the compounds in vivo against juvenile and adult worms, five female Swiss-Webster mice were randomly assigned for the control and experiment groups using a randomization tool embedded in GraphPad Prism. Mice were percutaneously exposed for 1 h to about 80 S. mansoni cercariae. Three- and six-weeks post infection, respectively, for juvenile and adult worms, mice were treated depending on their weight with formulations of the compounds, while the control mice received only the vehicle. Compounds were formulated with 10% DMSO and 10% Tween-80, and vortexed to obtain a uniform mixture. The mixture was sonicated twice for 5 min each time using a digital ultrasonic cleaner heated to 50 °C. Sodium chloride 0.9% (80% normal saline) was added to the mixture, briefly vortexed and sonicated one more time using the same conditions as previous. The investigators were blinded by which group of mice received a treatment and the vehicle, as injection was done by technicians from the Comparative Research Center of Rush University Medical Center. Using a 26 G, 3/8 in intradermal bevel needle, each mouse was administered intraperitoneally with 100 µl of the formulated compound suspension at 50 mg/kg, 100 mg/kg and 200 mg/kg. Mice treated three weeks post infection for juvenile worms were euthanized three weeks post treatment and mice treated six weeks post infection were euthanized one week post treatment with 0.018 ml of Euthasol and 5.85 mg/ml heparin and perfused. The mesenteric and hepatic portal veins of the mice were carefully scanned under the microscope to extract any remaining S. mansoni adult worms and worm burdens were determined. Egg burden was determined by weighing 50 mg of liver tissue from each of treated and control mice. The liver tissues were digested with 5% KOH at 37 °C overnight and washed twice with PBS. The number of eggs per 50 mg of liver tissue was determined using a Keyence BZ-X800 microscope using the egg autofluorescence.

TGR [4] = target: T1, TGR; assay: Superoxide production (pyrogallol red); assay type: biochemical, S. mansoni; details: replicates
Summary of the method: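 TGR (500 nM) with 100 µM NADPH and 20–50 µM inhibitor was preincubated at room temperature for 30 min or 2 h. Samples were then added to 50 µM pyrogallol red with 300 µM NADPH, ± SOD, and A340/A540 were followed for 2 h.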

[5] = test system: S. mansoni adult worms in mice; assay: Schistosomicidal efficacy in infected mice, adult worms (42 d.p.i.); assay type: in vivo; details: for Egg burden, Treated, individual mice / Worm burden, Treated, individual mice: Adult worm, listed as 8VP192; for Egg burden, Treated, individual mice: eggs per 50 mg liver (Fig. 6); for decrease in egg burden / decrease in worm burden: mice
Experimental: as §1

[6] = test system: TGR in newly transformed schistosomula (NTS); assay: TGR inhibition in NTS with TRFS-Green fluorescent probe; assay type: cell-based, S. mansoni; details: 2 h with inhibitor (30 µM; AF 3 µM) then TRFS-Green 10 µM
Summary of the method: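 Newly transformed schistosomula were cultured overnight at 37 °C with 5% CO2 in M199 containing 5.5 mM D-glucose, penicillin-streptomycin and 5% heat inactivated fetal bovine serum. After treatment they received TRFS-Green (10 µM) for 4 h and were rinsed. Fluorescence was imaged (Keyence BZ-X800) and quantified on a Cytation3 at excitation 438 nm, emission 538 nm.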

[7] = mice, 2 x 100 mg/kg at 21 d.p.i. (juvenile worms)
[8] = second of the two columns per substance (condition not given)
[9] = 1 x 100 mg/kg i.p. at 42 d.p.i.
[10] = 2 x 100 mg/kg i.p. (1: bid at 42 d.p.i.; 6: at 42 and 45 d.p.i.)

SMILES	NADPH consumption (rate/ΔOD340) (TGR [1])	Rate, no NADPH (TGR [2])	Rate, with NADPH (TGR [2])	Egg burden, Treated, individual mice ([3]; 2 x 100 mg/kg, Juvenile worm, eggs per 50 mg liver (Fig. 6), listed as 8VP192)	Worm burden, Treated, individual mice ([3]; 2 x 100 mg/kg, Juvenile worm, listed as 8VP192)	decrease in egg burden [3, 7]	decrease in worm burden [3, 7]	Superoxide production, Pyrogallol red consumption monitored ΔA540 (TGR [4]; condition not given)	Superoxide production, Pyrogallol red consumption monitored ΔA540 (TGR [4]; [8])	Egg burden, Treated, individual mice ([5]; 1 x 100 mg/kg)	Worm burden, Treated, individual mice ([5]; 1 x 100 mg/kg)	Egg burden, Treated, individual mice ([5]; 2 x 100 mg/kg)	Worm burden, Treated, individual mice ([5]; 2 x 100 mg/kg)	decrease in egg burden [5, 9]	decrease in worm burden [5, 9]	decrease in egg burden [5, 10]	decrease in worm burden [5, 10]	TRFS-Green fluorescence in NTS [6]
C#CCN(Cc1nc(-c2ccccc2)oc1C)[C@@H]1C[C@@H]2C[C@H]([C@H]1C)C2(C)C [Compound 6]	-0.0004895 and -0.0006543 and -0.0006565	0.02684 and 0.02786 and 0.03567	0.00166 and 0.0006764 and 0.001495	2214 and 2212 and 2241 and 2153 and 2264	28 and 25 and 23 and 18 and 26	6.8% and 7%	15.5% and 16%	-0.0001397 and -0.0001399	-5.466e-5 and -1.08e-5 and -2.977e-5	2001 and 2098 and 2074 and 2073	18 and 19 and 11 and 14 and 12	2011 and 2073 and 2001 and 2098 and 2074	23 and 26 and 25 and 20 and 22	3% and 2.8%	34% and 33.9%	18% and 18.2%	38% and 38.39%	
Cc1oc(C2CCCCC2)nc1C(=O)N[C@@H]1C[C@@H]2C[C@H]([C@H]1C)C2(C)C [Compound 7]	-0.0008479 and -0.0008204 and -0.0008408	0.05983 and 0.05966 and 0.05987	0.003086 and 0.003742 and 0.002131					-0.0001477 and -0.0001374 and -0.0001423	-5.501e-5 and -2.739e-5 and -2.749e-5									significant decreases in fluorescence
